Results taken from patent US20210251963A1, “UREA DERIVATIVES FOR USE IN THE TREATMENT OF SUBJECTS WITH ELEVATED EXPRESSION AND/OR ACTIVITY OF SRPK1” (Scandion Oncology A/S, priority 2018, published 2021).

Columns and labels:
Assay in all cases: Premier Screen kinase activity screening (33P ATP filter binding)
Assay type in all cases: biochemical
Conditions in all cases: 10 μM SCO-101, mean of assay duplicates, read-out: Kinase activity (percentage of DMSO control)
[1] = molecular target: T1, PDK1 (Homo sapiens, UniProt O15530)
T1 construct: purchased MRC Dundee, Premier Screen (contract screening service)
From the text: (§1) The kinase activity screening was done at MRC in Dundee. The screen was a so-called “Premier Screen” with 140 kinases. More specific information can be found here: http://www.kinase-screen.mrc.ac.uk/services/premier-screen
(§2) The method is based on a radioactive filter binding assay using 33P ATP (Hastie, et al 2006. Nat Protoc. 2006; 1(2):968-71; Bain, et al 2007. Biochem J. 2007 Dec. 15; 408(3):297-315). This method is sensitive, accurate and provides a direct measure of kinase enzyme activity. A concentration of 10 μM SCO-101 was used.
(§3) In the table below, the data is portrayed as the mean percentage activity of assay duplicates and a standard deviation. These percentage activities were calculated in comparison to DMSO controls. 10 μM SCO-101 reduced the activity of SRPK1 to 6% of the DMSO control.

[2] = molecular target: T2, BRK (Homo sapiens, UniProt Q13882)
T2 construct: MRC in Dundee (screening service)
From the text: as §1, §2, §3

[3] = molecular target: T3, CK2 (Homo sapiens, UniProt P68400)
T3 construct: purchased MRC Dundee, Premier Screen (contract screening service)
From the text: as §1, §2, §3

[4] = molecular target: EPH-B3 (Homo sapiens, UniProt P54753)
From the text: as §1, §2, §3

[5] = molecular target: T4, PLK1 (Homo sapiens, UniProt P53350)
T4 construct: purchased MRC in Dundee (Premier Screen service)
From the text: as §1, §2, §3

[6] = molecular target: T5, HER4 (Homo sapiens, UniProt Q15303)
T5 construct: MRC Dundee (screening service)
From the text: as §1, §2, §3

[7] = molecular target: T6, PIM3 (Homo sapiens, UniProt Q86V86)
T6 construct: purchased MRC in Dundee (Premier Screen service)
From the text: as §1, §2, §3

[8] = molecular target: T7, IKKb (Homo sapiens, UniProt O14920)
T7 construct: MRC Dundee (screening service)
From the text: as §1, §2, §3

[9] = molecular target: T8, BTK (Homo sapiens, UniProt Q06187)
T8 construct: MRC in Dundee (screening service)
From the text: as §1, §2, §3

[10] = molecular target: T9, MLK1 (Homo sapiens, UniProt P80192)
T9 construct: MRC Dundee (screening service)
From the text: as §1, §2, §3

[11] = molecular target: MPSK1 (Homo sapiens, UniProt O75716)
From the text: as §1, §2, §3

[12] = molecular target: T10, LKB1 (Homo sapiens, UniProt Q15831)
T10 construct: MRC Dundee (screening service)
From the text: as §1, §2, §3

[13] = molecular target: T11, Aurora B (Homo sapiens, UniProt Q96GD4)
T11 construct: purchased MRC in Dundee (Premier Screen service)
From the text: as §1, §2, §3

[14] = molecular target: T12, MNK2 (Homo sapiens, UniProt Q9HBH9)
T12 construct: purchased MRC Dundee, Premier Screen (contract screening service)
From the text: as §1, §2, §3

[15] = molecular target: T13, DYRK1A (Homo sapiens, UniProt Q13627)
T13 construct: purchased MRC Dundee, Premier Screen (contract screening service)
From the text: as §1, §2, §3

[16] = molecular target: T14, YES1 (Homo sapiens, UniProt P07947)
T14 construct: MRC Dundee (screening service)
From the text: as §1, §2, §3

[17] = molecular target: T15, DYRK3 (Homo sapiens, UniProt O43781)
T15 construct: purchased MRC in Dundee (Premier Screen service)
From the text: as §1, §2, §3

[18] = molecular target: T16, GSK3b (Homo sapiens, UniProt P49841)
T16 construct: MRC Dundee (screening service)
From the text: as §1, §2, §3

[19] = molecular target: T17, JNK3 (Homo sapiens, UniProt P53779)
T17 construct: purchased MRC Dundee, Premier Screen (contract screening service)
From the text: as §1, §2, §3

[20] = molecular target: T18, PRAK (Homo sapiens, UniProt Q8IW41)
T18 construct: purchased MRC in Dundee (Premier Screen service)
From the text: as §1, §2, §3

[21] = molecular target: T19, PKCγ (Homo sapiens, UniProt P05129)
T19 construct: MRC Dundee (screening service)
From the text: as §1, §2, §3

[22] = molecular target: T20, HIPK1 (Homo sapiens, UniProt Q86Z02)
T20 construct: MRC Dundee (screening service)
From the text: as §1, §2, §3

[23] = molecular target: T21, p38a MAPK (Homo sapiens, UniProt Q16539)
T21 construct: purchased MRC in Dundee (Premier Screen service)
From the text: as §1, §2, §3

[24] = molecular target: T22, DYRK2 (Homo sapiens, UniProt Q92630)
T22 construct: purchased MRC in Dundee (Premier Screen service)
From the text: as §1, §2, §3

[25] = molecular target: DAPK1 (Homo sapiens, UniProt P53355)
From the text: as §1, §2, §3

[26] = molecular target: T23, CAMKKb (Homo sapiens, UniProt Q96RR4)
T23 construct: MRC in Dundee (screening service)
From the text: as §1, §2, §3

[27] = molecular target: CHK2 (Homo sapiens, UniProt O96017)
From the text: as §1, §2, §3

[28] = molecular target: CDK2-Cyclin A (Homo sapiens, UniProt P24941)
From the text: as §1, §2, §3

[29] = molecular target: T24, CK1δ (Homo sapiens, UniProt P48730)
T24 construct: purchased MRC Dundee, Premier Screen (contract screening service)
From the text: as §1, §2, §3

[30] = molecular target: T25, ASK1 (Homo sapiens, UniProt Q99683)
T25 construct: purchased MRC in Dundee (Premier Screen service)
From the text: as §1, §2, §3

[31] = molecular target: EPH-B2 (Homo sapiens, UniProt P29323)
From the text: as §1, §2, §3

[32] = molecular target: T26, HIPK2 (Homo sapiens, UniProt Q9H2X6)
T26 construct: purchased MRC in Dundee (Premier Screen service)
From the text: as §1, §2, §3

[33] = molecular target: T27, DDR2 (Homo sapiens, UniProt Q16832)
T27 construct: purchased MRC in Dundee (Premier Screen service)
From the text: as §1, §2, §3

[34] = molecular target: T28, SYK (Homo sapiens, UniProt P43405)
T28 construct: purchased MRC in Dundee (Premier Screen service)
From the text: as §1, §2, §3

[35] = molecular target: T29, CSK (Homo sapiens, UniProt P41240)
T29 construct: purchased MRC Dundee, Premier Screen (contract screening service)
From the text: as §1, §2, §3

[36] = molecular target: T30, TTBK1 (Homo sapiens, UniProt Q5TCY1)
T30 construct: MRC in Dundee (screening service)
From the text: as §1, §2, §3

T16 sequence (P49841 whole entry, species assumed): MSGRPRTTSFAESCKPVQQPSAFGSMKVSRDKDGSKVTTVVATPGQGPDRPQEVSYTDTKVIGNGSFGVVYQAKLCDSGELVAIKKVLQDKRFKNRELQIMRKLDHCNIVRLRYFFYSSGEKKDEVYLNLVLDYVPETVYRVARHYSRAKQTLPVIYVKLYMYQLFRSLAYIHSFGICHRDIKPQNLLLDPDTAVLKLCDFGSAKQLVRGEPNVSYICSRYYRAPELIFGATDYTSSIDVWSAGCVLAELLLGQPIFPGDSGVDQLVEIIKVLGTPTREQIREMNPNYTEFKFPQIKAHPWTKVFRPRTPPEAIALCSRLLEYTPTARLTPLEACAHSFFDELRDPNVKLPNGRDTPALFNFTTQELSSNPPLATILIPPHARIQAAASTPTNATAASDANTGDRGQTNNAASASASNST
T4 sequence (P53350 whole entry, species assumed): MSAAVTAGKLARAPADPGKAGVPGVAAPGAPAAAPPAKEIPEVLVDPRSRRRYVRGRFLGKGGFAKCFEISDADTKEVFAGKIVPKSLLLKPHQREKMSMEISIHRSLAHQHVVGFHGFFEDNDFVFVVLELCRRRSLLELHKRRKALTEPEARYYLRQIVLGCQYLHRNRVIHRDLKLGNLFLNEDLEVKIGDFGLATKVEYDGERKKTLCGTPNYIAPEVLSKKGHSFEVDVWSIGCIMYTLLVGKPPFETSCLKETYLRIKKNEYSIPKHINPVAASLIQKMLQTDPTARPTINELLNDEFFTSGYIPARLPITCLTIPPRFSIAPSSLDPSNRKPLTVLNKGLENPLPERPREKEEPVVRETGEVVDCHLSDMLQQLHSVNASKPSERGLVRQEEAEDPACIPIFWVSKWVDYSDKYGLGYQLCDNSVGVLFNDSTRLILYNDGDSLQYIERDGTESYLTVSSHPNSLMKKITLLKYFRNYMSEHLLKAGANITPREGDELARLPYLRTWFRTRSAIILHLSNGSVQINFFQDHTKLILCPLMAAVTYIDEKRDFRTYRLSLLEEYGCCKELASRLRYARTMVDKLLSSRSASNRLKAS
Sequence of EPH-B3 (P54753 34-998, species assumed): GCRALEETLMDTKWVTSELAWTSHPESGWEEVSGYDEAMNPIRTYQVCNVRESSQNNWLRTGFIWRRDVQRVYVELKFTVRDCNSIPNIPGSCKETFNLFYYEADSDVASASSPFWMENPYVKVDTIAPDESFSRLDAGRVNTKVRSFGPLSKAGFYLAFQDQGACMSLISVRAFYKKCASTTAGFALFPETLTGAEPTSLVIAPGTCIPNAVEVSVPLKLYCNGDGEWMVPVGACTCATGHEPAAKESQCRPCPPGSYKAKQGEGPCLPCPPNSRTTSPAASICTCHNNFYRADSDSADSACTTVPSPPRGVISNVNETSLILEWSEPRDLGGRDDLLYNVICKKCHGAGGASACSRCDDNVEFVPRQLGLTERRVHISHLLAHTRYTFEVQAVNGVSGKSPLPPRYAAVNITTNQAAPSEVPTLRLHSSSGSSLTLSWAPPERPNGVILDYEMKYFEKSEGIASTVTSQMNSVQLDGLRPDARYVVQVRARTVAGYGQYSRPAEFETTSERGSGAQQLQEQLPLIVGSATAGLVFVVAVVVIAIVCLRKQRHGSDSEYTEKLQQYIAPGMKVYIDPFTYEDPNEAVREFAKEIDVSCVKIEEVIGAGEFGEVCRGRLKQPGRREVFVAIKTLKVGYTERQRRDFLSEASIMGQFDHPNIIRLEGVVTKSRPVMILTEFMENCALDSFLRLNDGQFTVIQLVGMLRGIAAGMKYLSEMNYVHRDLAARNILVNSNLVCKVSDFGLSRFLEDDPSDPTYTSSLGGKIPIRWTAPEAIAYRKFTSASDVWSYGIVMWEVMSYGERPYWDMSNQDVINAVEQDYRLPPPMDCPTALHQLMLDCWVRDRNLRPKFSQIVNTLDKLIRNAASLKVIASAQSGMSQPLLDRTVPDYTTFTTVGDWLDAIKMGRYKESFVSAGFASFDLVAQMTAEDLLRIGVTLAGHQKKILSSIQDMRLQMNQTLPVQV
T15 sequence (O43781 whole entry, species assumed): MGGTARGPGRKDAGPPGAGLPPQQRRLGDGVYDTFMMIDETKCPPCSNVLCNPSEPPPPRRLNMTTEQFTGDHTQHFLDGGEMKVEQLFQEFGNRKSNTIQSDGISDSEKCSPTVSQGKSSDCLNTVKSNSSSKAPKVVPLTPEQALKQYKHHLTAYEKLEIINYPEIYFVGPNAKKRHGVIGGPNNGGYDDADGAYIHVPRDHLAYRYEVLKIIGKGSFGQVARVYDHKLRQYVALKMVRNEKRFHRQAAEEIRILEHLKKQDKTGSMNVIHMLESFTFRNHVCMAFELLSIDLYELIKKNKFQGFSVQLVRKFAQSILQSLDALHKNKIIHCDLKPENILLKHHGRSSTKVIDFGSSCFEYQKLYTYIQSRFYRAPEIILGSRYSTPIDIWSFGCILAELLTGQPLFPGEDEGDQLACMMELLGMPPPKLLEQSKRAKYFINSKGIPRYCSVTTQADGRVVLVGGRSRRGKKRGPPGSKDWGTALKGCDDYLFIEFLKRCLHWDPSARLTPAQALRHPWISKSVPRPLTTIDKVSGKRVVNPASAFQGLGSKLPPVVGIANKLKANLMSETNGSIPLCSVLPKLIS
T11 sequence (Q96GD4 whole entry): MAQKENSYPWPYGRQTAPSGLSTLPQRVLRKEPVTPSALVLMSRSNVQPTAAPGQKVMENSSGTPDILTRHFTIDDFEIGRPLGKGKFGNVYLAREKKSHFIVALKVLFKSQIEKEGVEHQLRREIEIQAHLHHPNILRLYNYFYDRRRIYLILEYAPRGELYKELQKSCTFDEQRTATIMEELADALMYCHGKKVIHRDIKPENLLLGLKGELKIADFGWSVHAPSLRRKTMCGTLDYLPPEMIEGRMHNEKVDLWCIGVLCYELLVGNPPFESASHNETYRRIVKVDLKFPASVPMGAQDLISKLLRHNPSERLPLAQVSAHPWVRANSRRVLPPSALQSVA
T12 sequence (Q9HBH9 whole entry, species assumed): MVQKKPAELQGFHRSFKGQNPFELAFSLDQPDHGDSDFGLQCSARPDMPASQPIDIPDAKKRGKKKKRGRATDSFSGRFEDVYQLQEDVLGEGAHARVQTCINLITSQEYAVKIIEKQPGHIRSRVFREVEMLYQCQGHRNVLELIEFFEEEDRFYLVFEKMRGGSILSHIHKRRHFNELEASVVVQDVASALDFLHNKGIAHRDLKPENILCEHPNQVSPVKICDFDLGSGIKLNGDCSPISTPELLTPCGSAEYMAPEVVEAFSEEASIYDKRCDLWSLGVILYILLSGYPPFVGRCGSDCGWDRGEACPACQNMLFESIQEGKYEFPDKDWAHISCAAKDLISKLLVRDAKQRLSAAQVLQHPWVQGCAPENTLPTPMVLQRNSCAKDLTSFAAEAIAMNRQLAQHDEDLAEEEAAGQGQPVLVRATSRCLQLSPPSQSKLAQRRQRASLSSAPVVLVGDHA
T22 sequence (Q92630 whole entry, species assumed): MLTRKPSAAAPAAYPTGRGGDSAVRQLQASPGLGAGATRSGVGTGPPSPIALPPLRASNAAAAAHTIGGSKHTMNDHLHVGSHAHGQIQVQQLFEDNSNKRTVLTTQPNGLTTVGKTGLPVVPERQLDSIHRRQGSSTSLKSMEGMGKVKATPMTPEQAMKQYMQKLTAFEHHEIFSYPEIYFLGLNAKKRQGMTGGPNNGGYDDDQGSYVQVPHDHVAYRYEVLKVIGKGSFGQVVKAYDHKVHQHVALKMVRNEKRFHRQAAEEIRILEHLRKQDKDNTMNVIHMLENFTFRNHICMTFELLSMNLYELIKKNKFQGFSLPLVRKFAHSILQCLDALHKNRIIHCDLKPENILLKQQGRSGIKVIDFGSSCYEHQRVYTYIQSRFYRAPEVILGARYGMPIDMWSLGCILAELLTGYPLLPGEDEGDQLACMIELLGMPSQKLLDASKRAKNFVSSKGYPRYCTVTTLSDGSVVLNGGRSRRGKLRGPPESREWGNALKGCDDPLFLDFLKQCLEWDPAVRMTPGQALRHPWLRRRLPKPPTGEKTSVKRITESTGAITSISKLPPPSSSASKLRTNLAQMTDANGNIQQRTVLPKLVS

With `O=C(Nc1cc(C(F)(F)F)cc(C(F)(F)F)c1)Nc1ccc(Br)cc1-c1nnn[nH]1` [SCO-101] the remaining activity at 10 µM [1] was 108%, the remaining activity at 10 µM [2] was 94% and the remaining activity at 10 µM [3] was 107%. It also gave a remaining activity at 10 µM [4] of 114%, a remaining activity at 10 µM [5] of 59% and a remaining activity at 10 µM [6] of 98%. For the same compound, the remaining activity at 10 µM [7] was 49%, the remaining activity at 10 µM [8] was 99% and the remaining activity at 10 µM [9] was 78%. The remaining activity at 10 µM [10] was 98%, the remaining activity at 10 µM [11] was 115% and the remaining activity at 10 µM [12] was 96%. For the same compound, the remaining activity at 10 µM [13] was 61%, the remaining activity at 10 µM [14] was 104% and the remaining activity at 10 µM [15] was 112%. It also gave a remaining activity at 10 µM [16] of 99%, a remaining activity at 10 µM [17] of 59% and a remaining activity at 10 µM [18] of 99%. The remaining activity at 10 µM [19] was 112%, the remaining activity at 10 µM [20] was 69% and the remaining activity at 10 µM [21] was 97%. The remaining activity at 10 µM [22] was 98%, the remaining activity at 10 µM [23] was 63% and the remaining activity at 10 µM [24] was 78%. The remaining activity at 10 µM [25] was 112%, the remaining activity at 10 µM [26] was 94% and the remaining activity at 10 µM [27] was 114%. The remaining activity at 10 µM [28] was 113%, the remaining activity at 10 µM [29] was 107% and the remaining activity at 10 µM [30] was 136%. For the same compound, the remaining activity at 10 µM [31] was 117%, the remaining activity at 10 µM [32] was 139% and the remaining activity at 10 µM [33] was 68%. It also gave a remaining activity at 10 µM [34] of 62%, a remaining activity at 10 µM [35] of 106% and a remaining activity at 10 µM [36] of 94%.
